Data taken from patent publication US20120009280A1, “METHOD OF REDUCING THE RATE OF DEGRADATION OF A BIOLOGICAL MATERIAL” (Bio-Energy Ingredients Limited, priority 2009, published 2012).

Tests used:
[1] = pH of suspensions of grain samples in distilled water or PBS; conditions: 1% (w/w) in distilled water
Description: The untreated sample (A) was compared visually against the corresponding quicklime-treated sample (B).
On Day 7, 10 g amounts of each sample were suspended in either 90 ml PBS or 90 ml sterile distilled water and shaken for 10 minutes. The pH of each suspension was then measured and compared.
On Day 9, 10 g of each sample was suspended in 90 ml PBS and shaken for 10 minutes. The pH was measured.

mould = assay: Mould count of spent brewer's / wet distiller's grains stored at ambient temperature; assay type: cell-based
Description: Samples of Portion 1 (“AR”), Portion 3 (“SO”) and Portion 5 (“SH”) were then delivered to a microbiological testing facility about 15 kilometres from the treatment laboratory. Each was tested for initial total microbial, yeast and mould counts, respectively.
Separate untreated samples were similarly stored under insect-proof screens at ambient temperature for seven days (as shown in Tables 1 and 2). During the trial period the ambient temperature ranged from 11 to 33 degrees C.
The free moisture content on the initial spent brewer's grains was determined to be 78.1% m/m. After exposure to the environment for seven days, all of the samples were tested at a South African National Accreditation System (SANAS) approved microbiological testing facility. Each was tested for total micro-organism, yeast and mould counts to determine the affect of the various treatments. A similar procedure to that described in K. A. Rosentrater et al, Food Bioprocess Technol (2008) was used for the microbiological evaluation.
At the laboratory, the samples were thoroughly mixed and initially split into a first portion (Portion 1) and a second portion (Portion 2). Portion 1 was left untreated. A sample of Portion 1, was delivered immediately to a microbiological testing facility about 15 kilometres away from the treatment laboratory and was tested for initial total microbial, yeast and mould counts, respectively. No water removal prior to treatment was done in this experiment as was the case in Example 8 wherein a similar wet material was partially dewatered by pressing and the residue treated with 10% (w/w/) calcium oxide.
Samples from Portion 2 were subjected to treatment with varying amounts of a powdered, commercially-available calcium oxide containing approximately 94% calcium oxide (CaO) as shown in Table 32. […] The samples were stored in batches (according to the calcium oxide treatment) under insect-proof screens at ambient temperature for fifty six days. Separate untreated samples were similarly stored under insect-proof screens at ambient temperature for a total of 56 days. During the trial period the ambient temperature ranged from 10 to 30 degrees C. As this period was the southern hemisphere spring/early summer, the humidity as well as ambient temperatures varied widely.
The free moisture content on the initial spent brewer's grains was determined to be 79.4% m/m. After exposure to the environment for seven days, all of the samples were tested at a South African National Accreditation System (SANAS) approved microbiological testing facility. Each was tested for total micro-organism, yeast and mould counts to determine the affect of the various treatments. A similar procedure to that described in K. A. Rosentrater et al, Food Bioprocess Technol (2008) was used for the microbiological evaluation.
Samples from each treatment were drawn every seven days. No further calcium oxide treatment or agitation took place after the initial mix. In each case the entire sample was isolated and delivered to the microbiological testing facility.
The calcium oxide treatment trial described in Example 9 wherein wet distiller's grains were treated with 2.5%, 5% and 10.0% calcium oxide, respectively, versus untreated material was repeated using lower doses of calcium oxide. In this trial the same source of wet distiller's grains (again with now partial water removal prior to treatment) was treated. Also, the same protocol as described in Example 9 was applied, but at lower doses of calcium oxide i.e. 0.5%, 1.0%, 1.5%, 2.0% and 2.5%, respectively, versus untreated material.
In this trial the same source of wet distiller's grains (again with now partial water removal prior to treatment) was treated. Also, the same protocol as described in Example 9 was applied.

yeast = assay: Yeast count of spent brewer's / wet distiller's grains stored at ambient temperature; assay type: cell-based

SMILES: [Ca+2].[OH-].[OH-] [(CaOH)2 powder]
- pH ([1]; dose 3.3% (w/w), week 0): 11.78
- pH ([1]; dose 3.3% (w/w), week 1): 11.57
- pH ([1]; dose 3.3% (w/w), week 2): 8.69
- pH ([1]; dose 3.3% (w/w), week 3): 9.08
- pH ([1]; dose 3.3% (w/w), week 4): 8.45
- pH ([1]; dose 3.3% (w/w), week 5): 7.66
- pH ([1]; dose 3.3% (w/w), week 6): 9.32
- pH ([1]; dose 3.3% (w/w), week 7): 7.25
- pH ([1]; dose 3.3% (w/w), week 8): 9.29
- pH ([1]; dose 6.6% (w/w), week 0): 12.90
- pH ([1]; dose 6.6% (w/w), week 1): 12.30
- pH ([1]; dose 6.6% (w/w), week 2): 11.08
- pH ([1]; dose 6.6% (w/w), week 3): 11.78
- pH ([1]; dose 6.6% (w/w), week 4): 9.51
- pH ([1]; dose 6.6% (w/w), week 5): 7.68
- pH ([1]; dose 6.6% (w/w), week 6): 10.61
- pH ([1]; dose 6.6% (w/w), week 7): 7.25
- pH ([1]; dose 6.6% (w/w), week 8): 9.13
- pH ([1]; dose 6.6% (w/w), week 9): 8.84
- Mould Count (mould; dose 3.3% (w/w), week 0): <10 cfu/gram
- Mould Count (mould; dose 3.3% (w/w), week 1): <10 cfu/gram
- Mould Count (mould; dose 3.3% (w/w), week 2): <10 cfu/gram
- Mould Count (mould; dose 3.3% (w/w), week 3): <10 cfu/gram
- Mould Count (mould; dose 3.3% (w/w), week 4): <10 cfu/gram
- Mould Count (mould; dose 3.3% (w/w), week 5): <10 cfu/gram
- Mould Count (mould; dose 3.3% (w/w), week 6): <10 cfu/gram
- Mould Count (mould; dose 3.3% (w/w), week 7): <10 cfu/gram
- Mould Count (mould; dose 3.3% (w/w), week 8): <10 cfu/gram
- Mould Count (mould; dose 6.6% (w/w), week 0): <10 cfu/gram
- Mould Count (mould; dose 6.6% (w/w), week 1): <10 cfu/gram
- Mould Count (mould; dose 6.6% (w/w), week 2): <10 cfu/gram
- Mould Count (mould; dose 6.6% (w/w), week 3): <10 cfu/gram
- Mould Count (mould; dose 6.6% (w/w), week 4): <10 cfu/gram
- Mould Count (mould; dose 6.6% (w/w), week 5): <10 cfu/gram
- Mould Count (mould; dose 6.6% (w/w), week 6): <10 cfu/gram
- Mould Count (mould; dose 6.6% (w/w), week 7): <10 cfu/gram
- Mould Count (mould; dose 6.6% (w/w), week 8): <10 cfu/gram
- Mould Count (mould; dose 6.6% (w/w), week 9): 10 cfu/gram
- Yeast Count (yeast; dose 3.3% (w/w), week 0): <10 cfu/gram
- Yeast Count (yeast; dose 3.3% (w/w), week 1): <10 cfu/gram
- Yeast Count (yeast; dose 3.3% (w/w), week 2): <10 cfu/gram
- Yeast Count (yeast; dose 3.3% (w/w), week 3): <10 cfu/gram
- Yeast Count (yeast; dose 3.3% (w/w), week 4): <10 cfu/gram
- Yeast Count (yeast; dose 3.3% (w/w), week 5): <10 cfu/gram
- Yeast Count (yeast; dose 3.3% (w/w), week 6): <10 cfu/gram
- Yeast Count (yeast; dose 3.3% (w/w), week 7): <10 cfu/gram
- Yeast Count (yeast; dose 6.6% (w/w), week 0): <10 cfu/gram
- Yeast Count (yeast; dose 6.6% (w/w), week 1): <10 cfu/gram
- Yeast Count (yeast; dose 6.6% (w/w), week 3): <10 cfu/gram
- Yeast Count (yeast; dose 6.6% (w/w), week 4): <10 cfu/gram
- Yeast Count (yeast; dose 6.6% (w/w), week 5): <10 cfu/gram
- Yeast Count (yeast; dose 6.6% (w/w), week 6): <10 cfu/gram
- Yeast Count (yeast; dose 6.6% (w/w), week 7): <10 cfu/gram
- Yeast Count (yeast; dose 6.6% (w/w), week 8): <10 cfu/gram
- Yeast Count (yeast; dose 6.6% (w/w), week 9): <10 cfu/gram

SMILES: [Ca+2].[O-]CC(O)CO.[O-]CC(O)CO [Ca-DGO granules]
- pH ([1]; dose 10% (w/w), week 0): 10.2
- pH ([1]; dose 10% (w/w), week 1): 9.87
- pH ([1]; dose 10% (w/w), week 2): 7.09
- pH ([1]; dose 10% (w/w), week 3): 7.90
- pH ([1]; dose 10% (w/w), week 4): 8.89
- pH ([1]; dose 10% (w/w), week 5): 6.83
- pH ([1]; dose 10% (w/w), week 6): 8.93
- pH ([1]; dose 10% (w/w), week 7): 7.24
- pH ([1]; dose 10% (w/w), week 8): 8.63
- pH ([1]; dose 10% (w/w), week 9): 8.96
- pH ([1]; dose 15% (w/w), week 0): 11.53
- pH ([1]; dose 15% (w/w), week 1): 11.35
- pH ([1]; dose 15% (w/w), week 2): 6.61
- pH ([1]; dose 15% (w/w), week 3): 8.03
- pH ([1]; dose 15% (w/w), week 4): 8.54
- pH ([1]; dose 15% (w/w), week 5): 7.20
- pH ([1]; dose 15% (w/w), week 6): 9.25
- pH ([1]; dose 15% (w/w), week 7): 7.21
- pH ([1]; dose 15% (w/w), week 8): 9.17
- pH ([1]; dose 15% (w/w), week 9): 8.95
- Mould Count (mould; dose 10% (w/w), week 0): <10 cfu/gram
- Mould Count (mould; dose 10% (w/w), week 1): <10 cfu/gram
- Mould Count (mould; dose 10% (w/w), week 2): <10 cfu/gram
- Mould Count (mould; dose 10% (w/w), week 3): <10 cfu/gram
- Mould Count (mould; dose 10% (w/w), week 4): <10 cfu/gram
- Mould Count (mould; dose 10% (w/w), week 5): <10 cfu/gram
- Mould Count (mould; dose 10% (w/w), week 6): <10 cfu/gram
- Mould Count (mould; dose 10% (w/w), week 7): 400 cfu/gram
- Mould Count (mould; dose 10% (w/w), week 8): 250 cfu/gram
- Mould Count (mould; dose 10% (w/w), week 9): <10 cfu/gram
- Mould Count (mould; dose 15% (w/w), week 0): <10 cfu/gram
- Mould Count (mould; dose 15% (w/w), week 1): <10 cfu/gram
- Mould Count (mould; dose 15% (w/w), week 2): <10 cfu/gram
- Mould Count (mould; dose 15% (w/w), week 3): <10 cfu/gram
- Mould Count (mould; dose 15% (w/w), week 4): <10 cfu/gram
- Mould Count (mould; dose 15% (w/w), week 5): <10 cfu/gram
- Mould Count (mould; dose 15% (w/w), week 6): <10 cfu/gram
- Mould Count (mould; dose 15% (w/w), week 7): <10 cfu/gram
- Mould Count (mould; dose 15% (w/w), week 8): <10 cfu/gram
- Mould Count (mould; dose 15% (w/w), week 9): <10 cfu/gram
- Yeast Count (yeast; dose 10% (w/w), week 0): <10 cfu/gram
- Yeast Count (yeast; dose 10% (w/w), week 1): <10 cfu/gram
- Yeast Count (yeast; dose 10% (w/w), week 2): <10 cfu/gram
- Yeast Count (yeast; dose 10% (w/w), week 7): <10 cfu/gram
- Yeast Count (yeast; dose 10% (w/w), week 8): <10 cfu/gram
- Yeast Count (yeast; dose 15% (w/w), week 0): <10 cfu/gram
- Yeast Count (yeast; dose 15% (w/w), week 1): <10 cfu/gram
- Yeast Count (yeast; dose 15% (w/w), week 2): <10 cfu/gram
- Yeast Count (yeast; dose 15% (w/w), week 3): <10 cfu/gram
- Yeast Count (yeast; dose 15% (w/w), week 4): <10 cfu/gram
- Yeast Count (yeast; dose 15% (w/w), week 5): 30 cfu/gram
- Yeast Count (yeast; dose 15% (w/w), week 6): <10 cfu/gram
- Yeast Count (yeast; dose 15% (w/w), week 7): <10 cfu/gram
- Yeast Count (yeast; dose 15% (w/w), week 8): <10 cfu/gram
- Yeast Count (yeast; dose 15% (w/w), week 9): <10 cfu/gram
